Measurements as given in PubChem BioAssay AID2060616 (Molecular Pharmacology Branch, DTP, NCI, 2025).

Test system: 377384-186-R-J1-PDC complex spheroid viability
Assay: Anticancer human tumor 377384-186-R-J1-PDC patient-derived pancreatic carcinoma cell line growth inhibition [CLK]
Details: for IC50: curve of first compound; for viability, T/C: stronger effect = lower value
Description: A high-throughput screen of multi-cell type tumor spheroids was designed to identify active combinations of […] and targeted small molecules. Complex spheroids include a stromal component modeled by human endothelial cells (HUVEC) and fibroblasts modeled by human mesenchymal stem cells (MSCs). The concentration ranges selected for each drug and investigational agent were based upon clinically achievable concentrations if the clinical Cmax of the agent was known.
Compounds. The drugs and investigational agents: cirtuvivint (SM08502; NSC835563), CC-671 (NSC850746), vemurafenib (NSC761431), tapotoclax (NSC804041), sotorasib (NSC818433), adagrasib (NSC831453), MRTX-1133 (NSC836407), BAY2416964 (NSC825713), copanlisib (NSC816437), inavolisib (NSC800729), abemaciclib (NSC768073), osimertinib (NSC779217), entinostat (NSC756642), eltanexor (KPT-8602, NSC794443), venetoclax (NSC766270), ceralasertib (NSC777638), bortezomib (NSC756655), olaparib (NSC753686), talazoparib (NSC767125), alisertib (NSC759677), peposertib (NSC802822), gemcitabine (NSC613327), 5-fluorouracil (NSC19893), SN-38 (NSC673596), oxaliplatin (NSC266046), paclitaxel (NSC125973), and doxorubicin (NSC123127), were obtained from the National Cancer Institute (NCI) Developmental Therapeutics Program Chemical Repository. The FDA-approved anticancer drug set is available from the Developmental Therapeutics Program at https://dtp.cancer.gov/organization/dscb/obtaining/available plates.htm. […] The stock solutions were prepared in dimethyl sulfoxide (DMSO, Sigma-Aldrich, St. Louis, MO, cat. D2650), except for the platinum complexes which were prepared in saline (Quality Biological, Gaithersburg, MD, cat. 114-055-101), at 800-fold the tested concentration and stored at -70 degrees C prior to their use. All drugs and investigational agents were tested over a range starting from a high concentration at or near the clinical Cmax and decreasing in half-log increments. If the clinical Cmax for an agent had not been determined, the highest concentration tested was 10 microM.
Cell Culture. All cells were maintained in an incubator at 37 degrees C and 5% CO2 with 95% humidity. The PDC lines were cultured according to standard operating procedures established by the NCI PDMR. Briefly, all PDCs were thawed and cultured in Matrigel-coated flasks prepared with a working solution of 1X Ham's F-12 nutrient mix, without supplementation (Invitrogen, Waltham, MA, cat. 11765054), 100 U/mL penicillin-streptomycin (Invitrogen, cat. 15140122), and 2.5% Matrigel (Corning Inc., Corning, NY, cat. 354248) for the first three passages. The 947758-054-R-J2-PDC line was cultured in 6B/Colon 1A media, which includes advanced DMEM/F-12 (Thermo Fisher Scientific, cat. 12634028), 10 mM HEPES (Thermo Fisher Scientific, cat. 15630080), 1X GlutaMAX supplement (Thermo Fisher Scientific, cat. 35050061), 0.1 mg/mL primocin (InvivoGen, cat. ant-pm-2), 10% defined fetal bovine serum, heat inactivated (HyClone Laboratories Inc., cat. SH30070.03HI), 1.25 mM N-Acetyl-L-cysteine (Sigma-Aldrich, cat. A9165), 10 mM nicotinamide (Sigma-Aldrich, cat. N0636), 1X B-27 supplement (Thermo Fisher Scientific, cat. 17504044), 1X N-2 supplement (Thermo Fisher Scientific, cat. 17502048), and 10 microM Y-27632 dihydrochloride (Tocris Bioscience, cat. 1254). The 876862-298-R-J1-PDC was cultured in 6E media, which includes all 6B/Colon 1A media components plus 50% L-WRN conditioned media (ATCC, cat. CRL-3276), 50 ng/mL recombinant human EGF recombinant protein (hEGF; Thermo Fisher Scientific, cat. PHG0311), 10 ng/mL recombinant human fibroblast growth factor 10 (hGFG-10; PeproTech, cat. 100-26), 1 ng/mL recombinant human fibroblast growth factor 2 (hFGF-2; PeproTech, cat. 100-18B), and 1 µM prostaglandin E2 (PGE2; Tocris, cat. 2296). The 227483-062-R1-J1-PDC line was cultured in Panc media, containing all 6E components except hFGF-2, with the addition of 500 nM SB-431542 (Selleckchem, cat. S1067) and 10 nM gastrin (Tocris, cat. 3006). […]

[1] = second compound 0.0316 µM, first compound 0.0316 µM
[2] = second compound 0.0316 µM, first compound 0.1 µM
[3] = second compound 0.0316 µM, first compound 0.316 µM
[4] = second compound 0.0316 µM, first compound 1 µM
[5] = second compound 0.1 µM, first compound 0.0316 µM
[6] = second compound 0.1 µM, first compound 0.1 µM
[7] = second compound 0.1 µM, first compound 0.316 µM
[8] = second compound 0.1 µM, first compound 1 µM
[9] = second compound 0.316 µM, first compound 0.0316 µM
[10] = second compound 0.316 µM, first compound 0.1 µM
[11] = second compound 0.316 µM, first compound 0.316 µM
[12] = second compound 0.316 µM, first compound 1 µM
[13] = second compound 1 µM, first compound 0.0316 µM
[14] = second compound 1 µM, first compound 0.1 µM
[15] = second compound 1 µM, first compound 0.316 µM
[16] = second compound 1 µM, first compound 1 µM
[17] = second compound 3.16 µM, first compound 0.0316 µM
[18] = second compound 3.16 µM, first compound 0.1 µM
[19] = second compound 3.16 µM, first compound 0.316 µM
[20] = second compound 3.16 µM, first compound 1 µM
[21] = second compound 10 µM, first compound 0.0316 µM
[22] = second compound 10 µM, first compound 0.1 µM
[23] = second compound 10 µM, first compound 0.316 µM
[24] = second compound 10 µM, first compound 1 µM
[25] = second compound 0.0316 µM, first compound 0.00316 µM
[26] = second compound 0.0316 µM, first compound 0.01 µM
[27] = second compound 0.1 µM, first compound 0.00316 µM
[28] = second compound 0.1 µM, first compound 0.01 µM
[29] = second compound 0.316 µM, first compound 0.00316 µM
[30] = second compound 0.316 µM, first compound 0.01 µM
[31] = second compound 1 µM, first compound 0.00316 µM
[32] = second compound 1 µM, first compound 0.01 µM
[33] = second compound 3.16 µM, first compound 0.00316 µM
[34] = second compound 3.16 µM, first compound 0.01 µM
[35] = second compound 10 µM, first compound 0.00316 µM
[36] = second compound 10 µM, first compound 0.01 µM
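Note: spheroids exposed to agents for 7 days before reading.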
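Throughout, for viability, T/C: luminescence signal used as a stand-in for viable cells.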

`CC(Nc1ccc2c(c1)OCCn1cc(N3C(=O)OCC3C(F)F)nc1-2)C(N)=O` (stereo unspecified) + CN1CCN(c2cc(C(=O)Nc3cc4cc(-c5cnn(C)c5)ccc4cn3)ccn2)CC1 gave an IC50 (second compound 0.0316 µM) of 5170 nM, an IC50 (second compound 0.1 µM) of 1460 nM and an IC50 (second compound 0.316 µM) of under 31.6 nM. For the same compound, the IC50 (second compound 1 µM) was under 31.6 nM, the IC50 (second compound 3.16 µM) was under 31.6 nM and the IC50 (second compound 10 µM) was under 31.6 nM. It also gave a viability, T/C [1] of 85.8%, a viability, T/C [2] of 83.1% and a viability, T/C [3] of 72.2%. The viability, T/C [4] was 69.4%, the viability, T/C (second compound 0.0316 µM, first compound 3.16 µM) was 53.4% and the viability, T/C (second compound 0.0316 µM, first compound 10 µM) was 43.4%. The viability, T/C [5] was 90%, the viability, T/C [6] was 79.3% and the viability, T/C [7] was 50.6%. For the same compound, the viability, T/C [8] was 57.4%, the viability, T/C (second compound 0.1 µM, first compound 3.16 µM) was 50.5% and the viability, T/C (second compound 0.1 µM, first compound 10 µM) was 39.4%. For the same compound, the viability, T/C [9] was 23.5%, the viability, T/C [10] was 23.6% and the viability, T/C [11] was 18.5%. For the same compound, the viability, T/C [12] was 19.8%, the viability, T/C (second compound 0.316 µM, first compound 3.16 µM) was 18.3% and the viability, T/C (second compound 0.316 µM, first compound 10 µM) was 18.4%. For the same compound, the viability, T/C [13] was 2.08%, the viability, T/C [14] was 1.88% and the viability, T/C [15] was 2.17%. For the same compound, the viability, T/C [16] was 1.6%, the viability, T/C (second compound 1 µM, first compound 3.16 µM) was 1.66% and the viability, T/C (second compound 1 µM, first compound 10 µM) was 2.21%. It also gave a viability, T/C [17] of 0.29%, a viability, T/C [18] of 0.96% and a viability, T/C [19] of 0.62%. For the same compound, the viability, T/C [20] was 0.3%, the viability, T/C (second compound 3.16 µM, first compound 3.16 µM) was 0.47% and the viability, T/C (second compound 3.16 µM, first compound 10 µM) was 0.64%. For the same compound, the viability, T/C [21] was 0.32%, the viability, T/C [22] was 1.36% and the viability, T/C [23] was 0.49%. The viability, T/C [24] was 0.37%, the viability, T/C (second compound 10 µM, first compound 3.16 µM) was 0.69% and the viability, T/C (second compound 10 µM, first compound 10 µM) was 0.37%.
For `CCN1CCN(Cc2ccc(Nc3ncc(F)c(-c4cc(F)c5nc(C)n(C(C)C)c5c4)n3)nc2)CC1` + CN1CCN(c2cc(C(=O)Nc3cc4cc(-c5cnn(C)c5)ccc4cn3)ccn2)CC1, the IC50 (second compound 0.0316 µM) was 364 nM, the IC50 (second compound 0.1 µM) was 514 nM and the IC50 (second compound 0.316 µM) was under 3.16 nM. The IC50 (second compound 1 µM) was under 3.16 nM, the IC50 (second compound 3.16 µM) was under 3.16 nM and the IC50 (second compound 10 µM) was under 3.16 nM. The viability, T/C [25] was 107%, the viability, T/C [26] was 78.2% and the viability, T/C [1] was 84%. It also gave a viability, T/C [2] of 66.3%, a viability, T/C [3] of 48.8% and a viability, T/C [4] of 39.5%. The viability, T/C [27] was 98.1%, the viability, T/C [28] was 101% and the viability, T/C [5] was 76.7%. It also gave a viability, T/C [6] of 79.8%, a viability, T/C [7] of 54.6% and a viability, T/C [8] of 40.5%. For the same compound, the viability, T/C [29] was 24.1%, the viability, T/C [30] was 28.6% and the viability, T/C [9] was 26%. It also gave a viability, T/C [10] of 22.9%, a viability, T/C [11] of 24.4% and a viability, T/C [12] of 24.4%. It also gave a viability, T/C [31] of 1.06%, a viability, T/C [32] of 1.3% and a viability, T/C [13] of 1.79%. It also gave a viability, T/C [14] of 1.66%, a viability, T/C [15] of 1.27% and a viability, T/C [16] of 1.25%. For the same compound, the viability, T/C [33] was 0.33%, the viability, T/C [34] was 0.44% and the viability, T/C [17] was 1.09%. It also gave a viability, T/C [18] of 0.39%, a viability, T/C [19] of 2.28% and a viability, T/C [20] of 2.3%. For the same compound, the viability, T/C [35] was 1.2%, the viability, T/C [36] was 0.43% and the viability, T/C [21] was 0.55%. The viability, T/C [22] was 0.44%, the viability, T/C [23] was 1.76% and the viability, T/C [24] was 0.24%.
With `COc1c(OCCCN2CCOCC2)ccc2c3n(c(=NC(=O)c4cnc(N)nc4)nc12)CCN3` + CN1CCN(c2cc(C(=O)Nc3cc4cc(-c5cnn(C)c5)ccc4cn3)ccn2)CC1 the IC50 (second compound 0.0316 µM) was 41.8 nM, the IC50 (second compound 0.1 µM) was 38.9 nM and the IC50 (second compound 0.316 µM) was under 3.16 nM. It also gave an IC50 (second compound 1 µM) of under 3.16 nM, an IC50 (second compound 3.16 µM) of under 3.16 nM and an IC50 (second compound 10 µM) of under 3.16 nM. The viability, T/C [25] was 103%, the viability, T/C [26] was 72.8% and the viability, T/C [1] was 55.2%. For the same compound, the viability, T/C [2] was 37.8%, the viability, T/C [3] was 24.9% and the viability, T/C [4] was 15%. The viability, T/C [27] was 89.9%, the viability, T/C [28] was 77.2% and the viability, T/C [5] was 48%. It also gave a viability, T/C [6] of 37.6%, a viability, T/C [7] of 25.3% and a viability, T/C [8] of 14.5%. The viability, T/C [29] was 31.7%, the viability, T/C [30] was 22.1% and the viability, T/C [9] was 18.7%. It also gave a viability, T/C [10] of 16.6%, a viability, T/C [11] of 14.2% and a viability, T/C [12] of 11.9%. It also gave a viability, T/C [31] of 2.68%, a viability, T/C [32] of 2.64% and a viability, T/C [13] of 1.8%. The viability, T/C [14] was 1.85%, the viability, T/C [15] was 2.19% and the viability, T/C [16] was 2.43%. The viability, T/C [33] was 0.37%, the viability, T/C [34] was 0.47% and the viability, T/C [17] was 0.92%. For the same compound, the viability, T/C [18] was 0.45%, the viability, T/C [19] was 0.44% and the viability, T/C [20] was 1.06%. It also gave a viability, T/C [35] of 0.5%, a viability, T/C [36] of 0.28% and a viability, T/C [21] of 0.28%. For the same compound, the viability, T/C [22] was 0.32%, the viability, T/C [23] was 0.33% and the viability, T/C [24] was 0.34%.
